These results are taken from patent US10370433B2, “Compositions and methods for diagnosis and treatment of cancer” (BIONTECH AG, priority 2015, dated 2019).

As a reminder, the Kd is the free concentration of one partner at which half of the binding sites on the other are occupied at equilibrium, for simple one-to-one binding.

The test has as its target T1, recombinant human Seprase (rhuSeprase) (Homo sapiens, UniProt Q12884).
T1 construct: named pCEP4-IgKappa-huSeprase-coCHO_26-760aa-H6 and used for the generation of recombinant soluble human Seprase (rhuSeprase); mouse Ig kappa-chain V-J2-C secretion signal (N, cleaved yes); made in house; host or cells: FreeStyle CHO-S cells (transient transfection; purified from supernatant by Ni-chelate and SEC)
T1 sequence (Q12884 26-760): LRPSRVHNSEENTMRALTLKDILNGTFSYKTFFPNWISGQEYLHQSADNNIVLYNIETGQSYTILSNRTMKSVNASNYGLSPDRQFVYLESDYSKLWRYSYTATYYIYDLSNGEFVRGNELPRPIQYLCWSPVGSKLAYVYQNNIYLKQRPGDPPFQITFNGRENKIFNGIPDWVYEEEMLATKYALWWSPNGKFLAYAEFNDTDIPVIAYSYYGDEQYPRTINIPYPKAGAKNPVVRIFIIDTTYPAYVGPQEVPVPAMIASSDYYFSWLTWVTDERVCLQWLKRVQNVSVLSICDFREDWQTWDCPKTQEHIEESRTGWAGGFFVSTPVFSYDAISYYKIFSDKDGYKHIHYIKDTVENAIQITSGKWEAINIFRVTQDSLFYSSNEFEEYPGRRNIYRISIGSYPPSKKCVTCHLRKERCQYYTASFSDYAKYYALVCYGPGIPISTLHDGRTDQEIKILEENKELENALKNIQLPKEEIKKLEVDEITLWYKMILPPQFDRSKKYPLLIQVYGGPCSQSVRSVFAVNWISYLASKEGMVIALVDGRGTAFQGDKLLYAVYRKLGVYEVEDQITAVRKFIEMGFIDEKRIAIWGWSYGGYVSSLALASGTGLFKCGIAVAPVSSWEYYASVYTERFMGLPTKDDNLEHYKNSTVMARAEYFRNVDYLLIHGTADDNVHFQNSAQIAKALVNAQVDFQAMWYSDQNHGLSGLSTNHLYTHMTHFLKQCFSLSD
Kind of test: Surface plasmon resonance (Biacore T100) on immobilized rhuSeprase. The settings on record: for kon: read-out: ka (1/Ms). In kind it is binding.

Positions of bridges follow the written chain, without caps; N, C: chain ends. Residues, ends and D or L forms follow the SMILES beside them.

`CC[C@H](C)[C@@H]1NC(=O)[C@@H]2CSSC[C@H](NC(=O)[C@H](C)NC(=O)CNC(=O)[C@H](CO)NC(=O)CN)C(=O)N3CCC[C@H]3C(=O)N[C@@H](Cc3ccc(O)cc3)C(=O)N[C@@H]([C@@H](C)O)C(=O)N[C@@H](CCCNC(=N)N)C(=O)N[C@@H](Cc3c[nH]c4ccccc34)C(=O)N[C@@H](CCC(N)=O)C(=O)N3CCC[C@H]3C(=O)NCC(=O)N[C@@H](CCCNC(=N)N)C(=O)NCC(=O)N3CCC[C@H]3C(=O)N[C@@H](CO)C(=O)N[C@H]3CSSC[C@H](NC1=O)C(=O)N[C@@H](CCCNC(=N)N)C(=O)NCC(=O)N[C@@H](CC(N)=O)C(=O)NCC(=O)N[C@@H](Cc1ccc(O)cc1)C(=O)N[C@H](C(=O)NCC(=O)O)CSSC[C@H](NC(=O)[C@H](CC(=O)O)NC(=O)[C@H](CO)NC(=O)[C@H](CC(=O)O)NC(=O)[C@H](CCCNC(=N)N)NC(=O)[C@H](CCCNC(=N)N)NC3=O)C(=O)N1CCC[C@H]1C(=O)NCC(=O)N[C@@H](CCCNC(=N)N)C(=O)N2` [FA8-D05] (H-GSGACPYTRWQPGRGPSCRRDSDCPGRCICRGNGYCG-OH; disulfide 5-28, 18-30, 24-36; N-terminus and C-terminus assumed): the “kd” value came out at 0.8121 s⁻¹ and the kon is 4.21e+06 M⁻¹ s⁻¹.

With `CC[C@H](C)[C@@H]1NC(=O)[C@@H]2CSSC[C@H](NC(=O)[C@H](C)NC(=O)CNC(=O)[C@H](CO)NC(=O)CN)C(=O)N3CCC[C@H]3C(=O)N[C@@H](Cc3ccc(O)cc3)C(=O)N[C@@H](CO)C(=O)N[C@@H](CCCNC(=N)N)C(=O)N[C@@H](Cc3c[nH]c4ccccc34)C(=O)N[C@@H](C)C(=O)N[C@@H](C(C)C)C(=O)NCC(=O)N[C@@H](CCCNC(=N)N)C(=O)NCC(=O)N3CCC[C@H]3C(=O)N[C@@H](CC(=O)O)C(=O)N[C@H]3CSSC[C@H](NC1=O)C(=O)N[C@@H](CCCNC(=N)N)C(=O)NCC(=O)N[C@@H](CC(N)=O)C(=O)NCC(=O)N[C@@H](Cc1ccc(O)cc1)C(=O)N[C@H](C(=O)NCC(=O)O)CSSC[C@H](NC(=O)[C@H](CC(=O)O)NC(=O)[C@H](CO)NC(=O)[C@H](CC(=O)O)NC(=O)[C@H](CCCNC(=N)N)NC(=O)[C@H](CCCNC(=N)N)NC3=O)C(=O)N1CCC[C@H]1C(=O)NCC(=O)N[C@@H](CCCNC(=N)N)C(=O)N2` [FA8-D06] (H-GSGACPYSRWAVGRGPDCRRDSDCPGRCICRGNGYCG-OH; disulfide 5-28, 18-30, 24-36; N-terminus and C-terminus assumed), the “kd” value stood at 0.05303 s⁻¹ and the kon is 346000 M⁻¹ s⁻¹. Besides, the dissociation constant (Kd) (KD (M, steady state)) turned out to be 113 nM.

As for `CC[C@H](C)[C@@H]1NC(=O)[C@@H]2CSSC[C@H](NC(=O)[C@H](C)NC(=O)CNC(=O)[C@H](CO)NC(=O)CN)C(=O)N3CCC[C@H]3C(=O)N[C@@H](Cc3ccc(O)cc3)C(=O)N[C@@H](CO)C(=O)N[C@@H](CC(N)=O)C(=O)N[C@@H](Cc3c[nH]c4ccccc34)C(=O)N[C@@H](C)C(=O)N[C@@H](C(C)C)C(=O)NCC(=O)N[C@@H](CCCNC(=N)N)C(=O)NCC(=O)N3CCC[C@H]3C(=O)N[C@@H](CO)C(=O)N[C@H]3CSSC[C@H](NC1=O)C(=O)N[C@@H](CCCNC(=N)N)C(=O)NCC(=O)N[C@@H](CC(N)=O)C(=O)NCC(=O)N[C@@H](Cc1ccc(O)cc1)C(=O)N[C@H](C(=O)NCC(=O)O)CSSC[C@H](NC(=O)[C@H](CC(=O)O)NC(=O)[C@H](CO)NC(=O)[C@H](CC(=O)O)NC(=O)[C@H](CCCNC(=N)N)NC(=O)[C@H](CCCNC(=N)N)NC3=O)C(=O)N1CCC[C@H]1C(=O)NCC(=O)N[C@@H](CCCNC(=N)N)C(=O)N2` [FA8-F04] (H-GSGACPYSNWAVGRGPSCRRDSDCPGRCICRGNGYCG-OH; disulfide 5-28, 18-30, 24-36; N-terminus and C-terminus assumed), the “kd” value stood at 0.2003 s⁻¹ and the kon worked out at 624000 M⁻¹ s⁻¹.

As to `CC[C@H](C)[C@@H]1NC(=O)[C@@H]2CSSC[C@H](NC(=O)[C@H](C)NC(=O)CNC(=O)[C@H](CO)NC(=O)CN)C(=O)N3CCC[C@H]3C(=O)N[C@@H](Cc3ccc(O)cc3)C(=O)N[C@@H]([C@@H](C)O)C(=O)N[C@@H](CC(N)=O)C(=O)N[C@@H](Cc3c[nH]c4ccccc34)C(=O)N[C@@H](Cc3c[nH]cn3)C(=O)N3CCC[C@H]3C(=O)NCC(=O)N[C@@H](CCCNC(=N)N)C(=O)NCC(=O)N3CCC[C@H]3C(=O)N[C@@H](C)C(=O)N[C@H]3CSSC[C@H](NC1=O)C(=O)N[C@@H](CCCNC(=N)N)C(=O)NCC(=O)N[C@@H](CC(N)=O)C(=O)NCC(=O)N[C@@H](Cc1ccc(O)cc1)C(=O)N[C@H](C(=O)NCC(=O)O)CSSC[C@H](NC(=O)[C@H](CC(=O)O)NC(=O)[C@H](CO)NC(=O)[C@H](CC(=O)O)NC(=O)[C@H](CCCNC(=N)N)NC(=O)[C@H](CCCNC(=N)N)NC3=O)C(=O)N1CCC[C@H]1C(=O)NCC(=O)N[C@@H](CCCNC(=N)N)C(=O)N2` [FA8-G12] (H-GSGACPYTNWHPGRGPACRRDSDCPGRCICRGNGYCG-OH; disulfide 5-28, 18-30, 24-36; N-terminus and C-terminus assumed), the “kd” value was found to be 0.3171 s⁻¹ and the kon stood at 651000 M⁻¹ s⁻¹.

With `CC[C@H](C)[C@@H]1NC(=O)[C@@H]2CSSC[C@H](NC(=O)[C@H](C)NC(=O)CN)C(=O)N3CCC[C@H]3C(=O)N[C@@H](Cc3ccc(O)cc3)C(=O)N[C@@H](CO)C(=O)N[C@@H](CC(N)=O)C(=O)N[C@@H](Cc3c[nH]c4ccccc34)C(=O)N[C@@H]([C@@H](C)O)C(=O)N3CCC[C@H]3C(=O)NCC(=O)N[C@@H](CCCNC(=N)N)C(=O)NCC(=O)N3CCC[C@H]3C(=O)N[C@@H](CC(=O)O)C(=O)N[C@H]3CSSC[C@H](NC1=O)C(=O)N[C@@H](CCCNC(=N)N)C(=O)NCC(=O)N[C@@H](CC(N)=O)C(=O)NCC(=O)N[C@@H](Cc1ccc(O)cc1)C(=O)N[C@H](C(=O)NCC(=O)O)CSSC[C@H](NC(=O)[C@H](CC(=O)O)NC(=O)[C@H](CO)NC(=O)[C@H](CC(=O)O)NC(=O)[C@H](CCCNC(=N)N)NC(=O)[C@H](CCCNC(=N)N)NC3=O)C(=O)N1CCC[C@H]1C(=O)NCC(=O)N[C@@H](CCCNC(=N)N)C(=O)N2` [MC-FA-012] (H-GACPYSNWTPGRGPDCRRDSDCPGRCICRGNGYCG-OH; disulfide 3-26, 16-28, 22-34; N-terminus and C-terminus assumed), the kon was 408000 M⁻¹ s⁻¹.

Turning to `CC[C@H](C)[C@@H]1NC(=O)[C@@H]2CSSC[C@H](NC(=O)[C@H](C)NC(=O)CNC(=O)[C@H](CO)NC(=O)CN)C(=O)N3CCC[C@H]3C(=O)N[C@@H](Cc3ccc(O)cc3)C(=O)N[C@@H](CO)C(=O)N[C@@H](CC(N)=O)C(=O)N[C@@H](Cc3c[nH]c4ccccc34)C(=O)N[C@@H]([C@@H](C)O)C(=O)N3CCC[C@H]3C(=O)NCC(=O)N[C@@H](CCCNC(=N)N)C(=O)NCC(=O)N3CCC[C@H]3C(=O)N[C@@H](CC(=O)O)C(=O)N[C@H]3CSSC[C@H](NC1=O)C(=O)N[C@@H](CC(C)C)C(=O)N[C@@H](CCC(=O)O)C(=O)N[C@@H](CC(N)=O)C(=O)NCC(=O)N[C@@H](Cc1ccccc1)C(=O)N[C@H](C(=O)NCC(=O)O)CSSC[C@H](NC(=O)[C@H](CC(=O)O)NC(=O)[C@H](CO)NC(=O)[C@H](CC(=O)O)NC(=O)[C@H](CO)NC(=O)[C@H](CO)NC3=O)C(=O)N1CCC[C@H]1C(=O)NCC(=O)N[C@@H](C)C(=O)N2` [MO-FA-012] (H-GSGACPYSNWTPGRGPDCSSDSDCPGACICLENGFCG-OH; disulfide 5-28, 18-30, 24-36; N-terminus and C-terminus assumed), the “kd” value came out at 0.5128 s⁻¹ and the kon is 382000 M⁻¹ s⁻¹.
